Test results: ChEMBL document CHEMBL3137667, “[Drug-induced liver injury; fourteenth updated edition of the bibliographic database of liver injuries and related drugs]” (Gastroenterol Clin Biol, 2004)

Assays:
[1] = human
[2] = human; remark: listed apart in the source
[3] = human, serum
[4] = human; remark: listed apart in the source
[5] = Highest frequency of moderate liver toxicity observed during clinical trials, expressed as a percentage. [column '% BIOL' in source]; details: human
[6] = human; remark: listed apart in the source
[7] = human; remark: listed apart in the source
[8] = Highest frequency of acute liver toxicity observed during clinical trials, expressed as a percentage. [column '% AIGUE' in source]; details: human
[9] = human; remark: listed apart in the source
[10] = human, serum; remark: listed apart in the source
[11] = human; remark: listed apart in the source
[12] = human; remark: listed apart in the source
[13] = human; remark: listed apart in the source
[14] = human, serum, 4383 h
[15] = Times to onset, minimal and maximal, observed in the indexed observations. [column 'DELAI' in source]; details: human
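For Hepatotoxicity (association with vascular disease) in this document: count of indexed literature references reporting vascular liver injury in humans, e.g. peliosis hepatitis, hepatic veno-occlusive disease or Budd-Chiari syndrome.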
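For Hepatotoxicity (benign tumour) in this document: value is a count of indexed literature references citing a benign tumour confirmed by histopathology.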
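For Hepatotoxicity (choleostasis) in this document: human cholestatic liver injury, shown by histopathology or by peak ALT or AST elevation over alkaline phosphatase ratio below 2, value counts indexed literature reports.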
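For Hepatotoxicity (chronic liver disease) in this document: chronic liver injury confirmed by histopathology or persistently raised serum aminotransferase activity beyond 6 months, value given as the count of indexed literature references.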
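For Hepatotoxicity (cirrhosis) in this document: value is a count of indexed literature references reporting cirrhosis confirmed by histopathology.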
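For Hepatotoxicity (cytolytic) in this document: human cytolytic liver injury, shown by histopathology or by a ratio above 5 of peak ALT or AST elevation to alkaline phosphatase elevation, value counts indexed references.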
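For Hepatotoxicity (granulomatous hepatitis) in this document: value is a count of indexed literature references reporting granulomatous liver disease confirmed by histopathology.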
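For Hepatotoxicity (malignant tumour) in this document: malignant tumour confirmed by histopathology, value gives the count of indexed literature references reporting it.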
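For Hepatotoxicity (severe hepatitis) in this document: human clinical data: severe hepatitis, meaning potentially life-threatening liver failure or clinically observed cases, the value counts how many indexed literature references report it.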
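For Hepatotoxicity (steatosis) in this document: steatosis confirmed by histopathology, value is the count of indexed references.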

Compound	Hepatotoxicity (association with vascular disease) [1]	Hepatotoxicity (severe hepatitis) [2]	Hepatotoxicity (acute) [3]	Hepatotoxicity (steatosis) [4]	Hepatotoxicity (moderate) [5] [%]	Hepatotoxicity (cirrhosis) [6]	Hepatotoxicity (granulomatous hepatitis) [7]	Hepatotoxicity (acute) [8] [%]	Hepatotoxicity (cytolytic) [9]	Hepatotoxicity (moderate) [10]	Hepatotoxicity (malignant tumour) [11]	Hepatotoxicity (benign tumour) [12]	Hepatotoxicity (choleostasis) [13]	Hepatotoxicity (chronic liver disease) [14]	Hepatotoxicity (time to onset) [15]	other results
CC(=O)O[C@@]12CO[C@@H]1C[C@H](O)[C@@]1(C)C(=O)[C@H](O)C3=C(C)[C@@H](OC(=O)[C@H](O)[C@@H](NC(=O)OC(C)(C)C)c4ccccc4)C[C@@](O)([C@@H](OC(=O)c4ccccc4)[C@H]21)C3(C)C.O.O.O [DOCETAXEL]	0	1	4	0	20	0	0	14.3	2	3	0	0	1	0	3 days - 8 days	
CCN1CCCC1CNC(=O)c1cc(S(=O)(=O)CC)c(N)cc1OC (stereo not given) [AMISULPRIDE]	0	0	0	0	0	0	0	0	0	1	0	0	0	0	2 weeks	
C=CC1=C(C(=O)O)N2C(=O)[C@@H](NC(=O)/C(=N\OCC(=O)O)c3csc(N)n3)[C@H]2SC1 [CEFIXIME]	0	0	1	0	33.3	0	0	0	0	37	0	0	1	0	2 days	
CC1Cc2ccccc2N1NC(=O)c1ccc(Cl)c(S(N)(=O)=O)c1 (stereo not given) [INDAPAMIDE]	0		4	0		0	0		3	1	0	0	1	0	6 months - 5 years	Hepatotoxicity (severe hepatitis) ([2]; Liver): 1; Hepatotoxicity (moderate) ([5]; Liver): 0%; Hepatotoxicity (acute) ([8]; Liver): 0%
CCN(CC)CCOC(=O)[C@@H](Cc1cccc2ccccc12)C[C@@H]1CCCO1 [NAFTIDROFURYL]	0	0	3	0	0	0	1	0	2	0	0	0	2	0	7 weeks - 4.3 months	
N=C(N)NCC1COc2ccccc2O1 (stereo not given) [GUANOXAN]	0	1	2	0	30	0	0	10	1	2	0	0	2	0	2 months - 1 year	
CC1(C)S[C@@H]2[C@H](NC(=O)[C@H](C(=O)O)c3ccsc3)C(=O)N2[C@H]1C(=O)O.O=C(O)[C@H]1/C(=C/CO)O[C@@H]2CC(=O)N21	0	1	2	0	33	0	0	0	0	54	0	0	2	0	1 day - 6 weeks	
CCOC(=O)[C@H](CCc1ccccc1)N[C@H]1CCc2ccccc2N(CC(=O)O)C1=O [BENAZEPRIL]	0	1	2	0	0	0	0	0	1	0	0	0	0	0	14 months	
CCCCC1C(=O)NN(c2ccccc2)C1=O (stereo not given) [MOFEBUTAZONE]	0	0	1	0	0	1	0	0	1	0	0	0	0	0	2 years	
CC1(C)S[C@@H]2[C@H](NC(=O)[C@H](NC(=O)N3CCN(S(C)(=O)=O)C3=O)c3ccccc3)C(=O)N2[C@H]1C(=O)O [MEZLOCILLIN]	0		1	0		0				6	0	0		0	2 weeks - 3 weeks	Hepatotoxicity (severe hepatitis) ([2]; Liver): 0; Hepatotoxicity (moderate) ([5]; Liver): 25%; Hepatotoxicity (granulomatous hepatitis) ([7]; Liver): 0; Hepatotoxicity (acute) ([8]; Liver): 0%; Hepatotoxicity (cytolytic) ([9]; Liver): 0; Hepatotoxicity (choleostasis) ([13]; Liver): 1
FCOC(C(F)(F)F)C(F)(F)F [SEVOFLURANE]	0	2	6	0	40	0	0	0	6	4	0	0	0	0	1 day - 11 days	
MEGLUMINE ANTIMONATE	0	0	1	0	6	0	0	0	0	3	0	0	0	0	6 hours - 6 days	
CCC1(C)CC(=O)NC1=O (stereo not given) [ETHOSUXIMIDE]	0	0	0	0	0	0	0	0	0	2	0	0	0	0	1 month	
COc1cccc(OC)c1C(=O)N[C@@H]1C(=O)N2[C@@H]1SC(C)(C)[C@@H]2C(=O)O [METHICILLIN]	0	0	0	0	18.7	0	0	0	0	1	0	0	0	0	3 days - 3 weeks	
